Patent publication US20220186240A1, “FLAVONE 7-O-METHYLTRANSFERASE GENE AND USE FOR SAME” (Suntory Holdings Limited, priority 2019, published 2022)

How the values were obtained:
[1] = Simulation of flavone C-glycoside (isoorientin, swertisin) copigment effect with malvin, absorption spectra; assay type: physicochemical; settings: for Absorption maximum of malvin solution with addition of flavone C-glycoside (λmax): flavone C-glycoside at 10-equivalent molar concentration, pH 5.0, malvin 0.5 mM
Protocol: An anthocyanin (malvin) and flavone C-glycoside were prepared to simulate the copigment effect of the flavone C-glycoside on malvin. The malvin (malvidin 3,5-diglycoside) and flavone C-glycosides (isoorientin, swertisin) used in this experiment were purchased from Nacalai Tesque, Inc.
Each flavone C-glycoside (isoorientin or swertisin) was added to the malvin at 10-equivalent molar concentration in a buffering solution at pH 5.0, and the absorption spectra were measured. The malvin concentration was 0.5 mM.
Addition of the flavone C-glycoside increased the absorbance of the malvin solution, shifting the absorption maximum (λmax) toward the long wavelength end. The absorption maximum was shifted further toward the long wavelength end with addition of swertisin than with isoorientin.

[2] = Simulation of flavone C-glycoside (isovitexin) copigment effect with anthocyanin, absorption spectra; assay type: physicochemical; settings: for Absorption maximum of anthocyanin solution with addition of flavone C-glycoside (λmax): pH 4.5, anthocyanin 0.5 mM
Protocol: An anthocyanin and flavone C-glycoside were prepared to simulate the copigment effect of flavone C-glycoside on anthocyanin. The malvin (malvidin 3,5-diglycoside) and isovitexin (apigenin 6-C-glycoside) used for the experiment were purchased from Funakoshi Corp.
The flavone C-glycoside (isovitexin) was added to the anthocyanin (malvin) at 0, 2 and 4-equivalent molar concentrations in a buffering solution at pH 4.5, and the absorption spectra were measured. The anthocyanin concentration was 0.5 mM.
Addition of the flavone C-glycoside increased the absorbance of the anthocyanin solution, shifting the absorption maximum (λmax) toward the long wavelength end with increasing addition of flavone C-glycoside.

[3] = tested on: DN134067 (CcFn-7OMT, flavone 7-O-methyltransferase); assay: Enzyme activity measurement with crude protein solution extract from E. coli expressing DN134067, HPLC of reaction solution; assay type: biochemical, oboushibana (Commelina communis var. hortensis); settings: for peak detected in the enzyme reaction solution / Enzyme reaction synthesis product: compound as substrate; for peak detected in the enzyme reaction solution: HPLC; for Enzyme reaction synthesis product: 30° C., SAM, ND = no product peak
Source text: With DN134067 as a candidate protein having activity of transferring a methyl group to the hydroxyl group at position 7 of flavone C-glycoside, and using pET15b (Novagen), an E. coli expression vector containing the full-length DN134067 (pET15b-DN134067) was constructed according to the manufacturer's recommended protocol.
Plasmid pET15b-DN134067 was introduced into E. coli BL21 using One Shot BL21(DE3) (Invitrogen), according to the manufacturer's recommended protocol, to obtain E. coli transformants. The E. coli were cultured using an Overnight Express Autoinduction System 1 (Novagen), according to the manufacturer's recommended protocol. The E. coli transformants were cultured at 37° C. (approximately 4 hours) with 2 ml of prepared culture solution, to an OD600 value of 0.5. The E. coli solution was added as a preculturing solution to 50 ml of culture solution, and main culturing was carried out for two nights at 16° C.
The E. coli solution cultured for two nights was centrifuged (3000 rpm, 4° C., 15 minutes), and the collected cells were suspended in sonic buffer (composition: 40 mM KPB (pH7.5), 1 mM dithiothreitol, 50 μM amidinophenylmethanesulfonyl fluoride hydrochloride, […], 2 mM MgCl2, 1 μM S-adenosylmethionine (SAM)). A 5 ml portion of sonic buffer was added for each 1 g of E. coli. The suspended E. coli cells were crushed by ultrasonic treatment and then centrifuged (15,000 rpm, 4° C., 10 minutes), and the supernatant was recovered. The supernatant was used as a crude protein solution extract from E. coli expressing DN134067. An Avanti HP-26XP (rotor: JA-2) (Beckman Coulter) was used for the centrifugation.
After mixing 8 μl of 1 mM isovitexin (dissolved in 50% aqueous acetonitrile containing 0.1% TFA), 20 μl of 10 mM SAM, 20 μl of 10 mM MgCl2 and 10 μl of 1 M KPB (pH 7.5) and adjusting to 58 μl with water, the mixture was kept at 30° C. for 10 minutes, and then 2 μl of the crude protein solution extract from DN134067-expressing E. coli was added and enzyme reaction was carried out (30 minutes at 30° C.). Next, 100 μl of stop buffer (aqueous 90% acetonitrile solution containing 0.1% TFA) was added to stop the enzyme reaction, and the enzyme reaction solution was analyzed by high-performance liquid chromatography (Prominence by Shimadzu Corp.). Detection was at 330 nm using a Shimadzu PDA SPD-M20A as the detector. The column used was a Shim-Pack ODS 150 mm*4.6 mm (Shimadzu Corp.). Elution was performed using solution A (0.1% TFA aqueous solution) and solution B (aqueous 90% acetonitrile solution containing 0.1% TFA). The elution was with a 20-minute linear concentration gradient from a 9:1 mixture to a 8:2 mixture, a 15-minute linear concentration gradient from a 8:2 mixture to a 2:8 mixture and a 5-minute linear concentration gradient from a 2:8 mixture to a 0:10 mixture, followed by elution with a 0:10 mixture for 1 minute. The flow rate was 0.6 ml/min. As a control, the same experiment was carried out using a crude protein solution extract from E. coli in which pET15b vector without the insert had been introduced.
When enzyme reaction was conducted using an anthocyanin (delphinidin 3-glycoside, petunidin 3-glycoside or delphinidin 3,5-diglycoside) as the substrate, the enzyme reaction conditions were 30° C., 15 minutes, and an aqueous 90% acetonitrile solution containing 0.1% TFA and 0.24 N hydrochloric acid was used as the stop buffer. A Shimadzu PDA SPD-M20A detector was used for detection at 520 nm during analysis of the enzyme reaction solution by high-performance liquid chromatography (Prominence (Shimadzu Corp.)). The column used was a Shodex RSpak DE-413 L (Shodex). Elution was performed using solution A (0.1% TFA aqueous solution) and solution B (aqueous 90% acetonitrile solution containing 0.1% TFA). Elution was performed with a 15-minute linear concentration gradient from an 8:2 mixture to a 0:10 mixture, and subsequent elution for 5 minutes with a 0:10 mixture. […]

COc1cc(-c2[o+]c3cc(O)cc(O[C@@H]4O[C@H](CO)[C@@H](O)[C@H](O)[C@H]4O)c3cc2O[C@@H]2O[C@H](CO)[C@@H](O)[C@H](O)[C@H]2O)cc(OC)c1O [Malvin, malvidin 3,5-diglycoside]
Absorption maximum of malvin solution (λmax) ([1]; malvin alone, pH 5.0, 0.5 mM): 529 nm
Absorption maximum of anthocyanin solution with addition of flavone C-glycoside (λmax) ([2]; 0 equivalent isovitexin): 531.8 nm
Absorption maximum of anthocyanin solution with addition of flavone C-glycoside (λmax) ([2]; 2 equivalents isovitexin): 566.4 nm
Absorption maximum of anthocyanin solution with addition of flavone C-glycoside (λmax) ([2]; 4 equivalents isovitexin): 573.0 nm

COc1cc2oc(-c3ccc(O)cc3)cc(=O)c2c(O)c1[C@@H]1O[C@H](CO)[C@@H](O)[C@H](O)[C@H]1O [Swertisin, apigenin 7-methyl-6-C-glycoside]
copigment effect with malvin ([1]; compared with isoorientin, 10 equivalents, pH 5.0): higher copigment effect with malvin
Absorption maximum of malvin solution with addition of flavone C-glycoside (λmax) [1]: 579 nm

Petunidin 3-glycoside
peak detected in the enzyme reaction solution [3]: no peak was detected in the enzyme reaction solution other than for the substrate

Apigenin 4′-glycoside
peak detected in the enzyme reaction solution [3]: no peak was detected in the enzyme reaction solution other than for the substrate

Delphinidin 3,5-diglycoside
peak detected in the enzyme reaction solution [3]: no peak was detected in the enzyme reaction solution other than for the substrate

isovitexin 4′-glycoside [Saponarin]
peak detected in the enzyme reaction solution [3]: no peak was detected in the enzyme reaction solution other than for the substrate

O=c1cc(-c2ccc(O)cc2)oc2cc(O)c([C@@H]3O[C@H](CO)[C@@H](O)[C@H](O)[C@H]3O)c(O)c12 [Isovitexin, apigenin 6-C-glycoside]
Enzyme reaction synthesis product [3]: Swertisin
peak detected in the enzyme reaction solution [3]: a peak for swertisin
copigment effect with malvin ([2]; pH 4.5, malvin 0.5 mM): copigment effect of isovitexin is exhibited with malvin

O=c1cc(-c2ccc(O)c(O)c2)oc2cc(O)c([C@@H]3O[C@H](CO)[C@@H](O)[C@H](O)[C@H]3O)c(O)c12 [Isoorientin, luteolin 6-C-glycoside]
Absorption maximum of malvin solution with addition of flavone C-glycoside (λmax) [1]: 575 nm
Enzyme reaction synthesis product [3]: Swertiajaponin
peak detected in the enzyme reaction solution [3]: a peak was detected for swertiajaponin

O=c1cc(-c2ccc(O)c(O)c2)oc2cc(O)cc(O)c12 [Luteolin]
peak detected in the enzyme reaction solution [3]: no peak was detected in the enzyme reaction solution other than for the substrate

O=c1cc(-c2ccc(O)cc2)oc2cc(O)cc(O)c12 [Apigenin]
peak detected in the enzyme reaction solution [3]: no peak was detected in the enzyme reaction solution other than for the substrate

Delphinidin 3-glycoside
peak detected in the enzyme reaction solution [3]: no peak was detected in the enzyme reaction solution other than for the substrate

Luteolin 4′-glycoside
peak detected in the enzyme reaction solution [3]: no peak was detected in the enzyme reaction solution other than for the substrate

B1: DN134067: oboushibana-derived flavone 7-O-methyltransferase (SEQ ID NO: 34/35), expressed in E. coli (protein)
chain: MEAQEDNAYMQALELQTGIDMNMTLRAAIELGILETIVGAGEGAKLAAGEISGHLPTANPEAPNMVDRMLRLLAAHNIVTCVVEGGVDGRPECKYGAAPVSKYFTGEGEMSLARKVLLATDMVTFQSWLHLKDSVINGGNAFHTAFNMSLFDKNKVDSRFNNVFNTSMKSVSLFAINKFINTYDGFSDIQVLVDVGGGIGTALYAITSKFPHIKGINFDLPQVISTAQTSYPEMEHVSGDMFASVPKGDAILLKHVLHNWEDESCLKILKTCWNSLPYKGKVIIVESVLPKAPGVSSASKYFTCLDVIMMAHFGAKLRTIEEFKELCNNAGFSSFNATYFHTYHCIMEFTK
modifications: Commelina communis var. hortensis
methyl group-transfer activity ([3]; substrate comparison): most powerful methyl group-transfer activity for isovitexin
